Reference: patent publication US10287255B2, “Compounds as histone deacetylase 6 inhibitors and pharmaceutical compositions comprising the same” (CHONG KUN DANG PHARMACEUTICAL CORP., priority 2014, dated 2019)

Key:
human recombinant HDAC1 = target: T1, human recombinant HDAC1 (Homo sapiens, UniProt Q13547); assay: HDAC1 enzyme activity inhibition assay (in vitro, fluorimetric); format: biochemical; conditions: human recombinant HDAC1, fluorimetric kit, 30° C. 60 minutes
T1 construct: purchased Enzo Life Science BML-SE456
Method: (§1) In order to examine the HDAC6 selectivity of the compounds of formula 1 of the present invention by HDAC1 and HDAC6 enzymatic activity inhibition assays, an experiment was performed using a conventional substance as a control.
(§2) HDAC enzyme activity was measured using a HDAC Fluorimetric Drug Discovery Kit (BML-AK511, 516, Enzo Life Science). For the HDAC1 enzyme activity test, human recombinant HDAC1 (BML-SE456) was used as an enzyme source, and Fluor de Lys®-“SIRT1 (BNL-KI177) was used as a substrate. A 5-fold dilution of the compound was seeded into a 96-well plate, and then 0.3 μg of the enzyme and 10 μM of the substrate were added to each well of the plate and allowed to react at 30° C. for 60 minutes. Then, Fluor de Lys® Developer II (BML-KI176) was added thereto and allowed to react for 30 minutes, after which the fluorescence value (Ex 360, Em 460) was measured using a multi-plate reader (Flexstation 3, Molecular Device). The HDAC6 enzyme was tested using human recombinant HDAC6 (382180) (Calbiochem) according to the same protocol as the HDAC1 enzyme activity test method. Based on the resulting values, each IC50 value was calculated using GraphPad Prism4.0 program.

human recombinant HDAC6 = target: T2, human recombinant HDAC6 (Homo sapiens, UniProt Q9UBN7); assay: HDAC6 enzyme activity inhibition assay (in vitro, fluorimetric); format: biochemical; conditions: for HDAC6 selectivity (fold): HDAC6 selectivity over HDAC1; for IC50: human recombinant HDAC6, fluorimetric kit, same protocol as HDAC1
T2 construct: purchased Calbiochem 382180
T2 sequence (Q9UBN7 1-1215): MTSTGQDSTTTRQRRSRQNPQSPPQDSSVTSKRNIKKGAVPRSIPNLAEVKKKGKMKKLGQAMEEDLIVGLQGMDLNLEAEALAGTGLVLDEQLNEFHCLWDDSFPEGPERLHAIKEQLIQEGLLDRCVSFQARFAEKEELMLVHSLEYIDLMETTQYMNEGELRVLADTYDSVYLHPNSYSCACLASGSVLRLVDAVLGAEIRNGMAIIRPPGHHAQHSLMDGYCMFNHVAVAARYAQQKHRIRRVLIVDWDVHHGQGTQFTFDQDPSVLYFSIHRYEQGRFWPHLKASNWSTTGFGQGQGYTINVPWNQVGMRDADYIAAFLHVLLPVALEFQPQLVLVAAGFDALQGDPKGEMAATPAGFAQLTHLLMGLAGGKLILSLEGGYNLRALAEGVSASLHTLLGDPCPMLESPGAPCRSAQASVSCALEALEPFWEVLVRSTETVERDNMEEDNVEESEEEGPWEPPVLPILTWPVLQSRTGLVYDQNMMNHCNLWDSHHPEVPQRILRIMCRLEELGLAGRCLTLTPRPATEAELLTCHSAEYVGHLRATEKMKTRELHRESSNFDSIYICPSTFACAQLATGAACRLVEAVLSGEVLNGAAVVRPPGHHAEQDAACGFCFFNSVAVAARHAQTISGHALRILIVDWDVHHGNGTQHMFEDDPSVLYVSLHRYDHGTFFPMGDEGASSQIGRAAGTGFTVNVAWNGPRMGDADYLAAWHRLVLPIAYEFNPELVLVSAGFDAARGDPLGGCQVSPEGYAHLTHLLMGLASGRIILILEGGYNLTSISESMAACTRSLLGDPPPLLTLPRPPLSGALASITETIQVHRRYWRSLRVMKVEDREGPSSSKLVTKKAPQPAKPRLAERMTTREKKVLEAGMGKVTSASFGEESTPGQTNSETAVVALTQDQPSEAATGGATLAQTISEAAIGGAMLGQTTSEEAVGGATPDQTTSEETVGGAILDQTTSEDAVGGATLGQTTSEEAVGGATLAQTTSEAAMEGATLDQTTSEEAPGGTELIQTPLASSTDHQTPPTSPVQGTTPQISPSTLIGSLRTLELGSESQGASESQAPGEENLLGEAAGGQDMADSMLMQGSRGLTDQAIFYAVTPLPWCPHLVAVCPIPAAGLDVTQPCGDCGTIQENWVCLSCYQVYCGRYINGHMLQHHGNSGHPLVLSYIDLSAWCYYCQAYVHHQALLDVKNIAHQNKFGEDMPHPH
Method: as §1, §2

T1 sequence (Q13547 whole entry): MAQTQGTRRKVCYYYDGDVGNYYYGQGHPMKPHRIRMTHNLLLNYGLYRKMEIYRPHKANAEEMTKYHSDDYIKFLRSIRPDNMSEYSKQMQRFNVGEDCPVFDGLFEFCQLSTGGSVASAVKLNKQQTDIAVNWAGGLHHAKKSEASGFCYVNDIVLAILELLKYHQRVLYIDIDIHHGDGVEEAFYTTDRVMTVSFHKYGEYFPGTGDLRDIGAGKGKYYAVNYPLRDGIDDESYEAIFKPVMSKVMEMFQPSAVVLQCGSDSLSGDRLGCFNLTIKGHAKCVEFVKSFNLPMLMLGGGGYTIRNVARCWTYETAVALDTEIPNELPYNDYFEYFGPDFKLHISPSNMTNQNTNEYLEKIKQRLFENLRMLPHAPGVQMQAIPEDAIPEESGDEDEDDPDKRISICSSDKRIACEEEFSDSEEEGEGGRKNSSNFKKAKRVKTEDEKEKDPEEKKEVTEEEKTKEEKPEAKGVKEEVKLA

| SMILES | IC50 (human recombinant HDAC1) [µM] | HDAC6 selectivity (fold) (human recombinant HDAC6) | IC50 (human recombinant HDAC6) [nM] |
| --- | --- | --- | --- |
| CC(CN(C)Cc1ccccc1)NCc1cccc(C(=O)N2[C@H](C)CN(Cc3ccc(C(=O)NO)cc3)C[C@@H]2C)c1 (stereo partly drawn) [Compound 441, 4-(((3R,5S)-4-(3-(((1-(benzyl(methyl)amino)propan-2-yl)amino)methyl)benzoyl)-3,5-dimethylpiperazin-1-yl)methyl)-N-hydroxybenzamide] | 5.4 | 154 | 35 |
| COc1ccc(NC(=O)N2C[C@@H](C)N(Cc3ccc(C(=O)NO)cc3)[C@@H](C)C2)cc1 [Compound 165, (3R,5S)-4-(4-(hydroxycarbamoyl)benzyl)-N-(4-methoxyphenyl)-3,5-dimethylpiperazine-1-carboxamide] | 1.4 | 2 | 560 |
| C[C@@H]1CN(Cc2ccc(C(=O)NO)cc2)C[C@H](C)N1Cc1ccc(CN2CCCC2)cc1 [Compound 466, 4-(((3R,5S)-3,5-dimethyl-4-(4-(pyrrolidin-1-ylmethyl)benzyl)piperazin-1-yl)methyl)-N-hydroxybenzamide] | 0.7 | 35 | 19 |
| C[C@@H]1CN(Cc2ccc(C(=O)NO)cc2)C[C@H](C)N1Cc1cccc(C2=CCC(C)(C)CC2)c1 [Compound 347, 4-(((3R,5S)-4-((4′,4′-dimethyl-2′,3′,4′,5′-tetrahydro-[1,1′-biphenyl]-3-yl)methyl)-3,5-dimethylpiperazin-1-yl)methyl)-N-hydroxybenzamide] | > 10 | >25 | 408 |
| C[C@@H]1CN(Cc2ccc(C(=O)NO)cc2)C[C@H](C)N1Cc1ccccc1Cl [Compound 127, 4-(((3R,5S)-4-(2-chlorobenzyl)-3,5-dimethylpiperazin-1-yl)methyl)-N-hydroxybenzamide] | > 10 | >909 | 11 |
| C[C@@H]1CN(Cc2ccc(C(=O)NO)cc2)C[C@H](C)N1Cc1cccc(CN2CCN(CC(C)(C)O)CC2)c1 [Compound 386, N-hydroxy-4-(((3R,5S)-4-(3-((4-(2-hydroxy-2-methylpropyl)piperazin-1-yl)methyl)benzyl)-3,5-dimethylpiperazin-1-yl)methyl)benzamide] | > 10 | >77 | 130 |
| C[C@@H]1CN(Cc2ccc(C(=O)NO)cc2)C[C@H](C)N1C(=O)c1ccc(Cl)cc1 [Compound 122, 4-(((3R,5S)-4-(4-chlorobenzoyl)-3,5-dimethylpiperazin-1-yl)methyl)-N-hydroxybenzamide] | 3.6 | 717 | 5 |
| C[C@@H]1CN(Cc2ccc(C(=O)NO)cc2)C[C@H](C)N1Cc1cc(C(F)(F)F)cc(C(F)(F)F)c1 [Compound 214, 4-(((3R,5S)-4-(3,5-bis(trifluoromethyl)benzyl)-3,5-dimethylpiperazin-1-yl)methyl)-N-hydroxybenzamide] | > 10 | >61 | 165 |
| C[C@@H]1CN(Cc2ccc3ccccc3c2)C[C@H](C)N1Cc1ccc(C(=O)NO)cc1 [Compound 268, 4-(((2S,6R)-2,6-dimethyl-4-(naphthalen-2-ylmethyl)piperazin-1-yl)methyl)-N-hydroxybenzamide] | 2.8 | 2 | 1270 |
| C[C@@H]1CN(Cc2ccc(C(=O)NO)cc2)C[C@H](C)N1Cc1cccc(CN2CCOCC2)c1 [Compound 356, 4-(((3R,5S)-3,5-dimethyl-4-(3-(morpholinomethyl)benzyl)piperazin-1-yl)methyl)-N-hydroxybenzamide] | 12.3 | 558 | 22 |
| C[C@@H]1CN(Cc2ccc(C(=O)NO)cc2)C[C@H](C)N1Cc1ccccc1-c1ccco1 [Compound 327, 4-(((3R,5S)-4-(2-(furan-2-yl)benzyl)-3,5-dimethylpiperazin-1-yl)methyl)-N-hydroxybenzamide] | > 10 | >43 | 235 |
| CC(C)NC(=O)N1C[C@@H](C)N(Cc2ccc(C(=O)NO)cc2)[C@@H](C)C1 [Compound 103, (3R,5S)-4-(4-(hydroxycarbamoyl)benzyl)-N-isopropyl-3,5-dimethylpiperazine-1-carboxamide] | 2.6 | 15 | 173 |
| C[C@@H]1CN(Cc2ccc(C(=O)NO)cc2)C[C@@H](C)N1Cc1ccccc1 [Compound 248, 4-(((3R,5R)-4-benzyl-3,5-dimethylpiperazin-1-yl)methyl)-N-hydroxybenzamide] | 8.5 | 96 | 89 |
| C[C@@H]1CN(Cc2ccc(C(=O)NO)cc2)C[C@H](C)N1Cc1cccc(Cl)c1 [Compound 128, 4-(((3R,5S)-4-(3-chlorobenzyl)-3,5-dimethylpiperazin-1-yl)methyl)-N-hydroxybenzamide] | 11.1 | 5540 | 2 |
| Cc1cccc(NC(=O)N2C[C@@H](C)N(Cc3ccc(C(=O)NO)cc3)[C@@H](C)C2)c1 [Compound 167, (3R,5S)-4-(4-(hydroxycarbamoyl)benzyl)-3,5-dimethyl-N-m-tolylpiperazine-1-carboxamide] | 0.8 | 10 | 77 |
| C[C@@H]1CN(Cc2ccc(C(=O)NO)cc2)C[C@H](C)N1Cc1cccc(CN2CCN(S(C)(=O)=O)CC2)c1 [Compound 452, 4-(((3R,5S)-3,5-dimethyl-4-(3-((4-(methylsulfonyl)piperazin-1-yl)methyl)benzyl)piperazin-1-yl)methyl)-N-hydroxybenzamide] | 9.1 | 140 | 65 |
| C[C@@H]1CN(Cc2ccc(C(=O)NO)cc2)C[C@H](C)N1C(=O)c1ccccc1 [Compound 083, 4-(((3R,5S)-4-benzoyl-3,5-dimethylpiperazin-1-yl)methyl)-N-hydroxybenzamide] | 2 | 201 | 10 |
| C[C@@H]1CN(Cc2ccc(C(=O)NO)cc2)C[C@H](C)N1Cc1cccc(CN2CC[C@@H](F)C2)c1 [Compound 383, 4-(((3R,5S)-4-(3-(((R)-3-fluoropyrrolidin-1-yl)methyl)benzyl)-3,5-dimethylpiperazin-1-yl)methyl)-N-hydroxybenzamide] | > 10 | >102 | 98 |
| CCC(=O)N1[C@H](C)CN(Cc2ccc(C(=O)NO)cc2)C[C@@H]1C [Compound 293, 4-(((3R,5S)-3,5-dimethyl-4-propionylpiperazin-1-yl)methyl)-N-hydroxybenzamide] | 5.8 | 44 | 131 |
| C[C@@H]1CN(Cc2ccc(-c3ccco3)cc2)C[C@H](C)N1Cc1ccc(C(=O)NO)cc1 [Compound 303, 4-(((2S,6R)-4-(4-(furan-2-yl)benzyl)-2,6-dimethylpiperazin-1-yl)methyl)-N-hydroxybenzamide] | 2.9 | 3 | 1110 |
| C[C@@H]1CN(Cc2ccc(C3=CCOCC3)cc2)C[C@H](C)N1Cc1ccc(C(=O)NO)cc1 [Compound 401, 4-(((2S,6R)-4-(4-(3,6-dihydro-2H-pyran-4-yl)benzyl)-2,6-dimethylpiperazin-1-yl)methyl)-N-hydroxybenzamide] | 2 | 7 | 301 |
